{"source": "patent US4540517A", "about": "“Antibiotic TAN-420” (Takeda Chemical Industries, Ltd., priority 1982, dated 1985)", "key": {"[1]": {"tested_on": "gram-positive bacteria, fungi and protozoae", "test": "Antimicrobial activity (general statement)", "conditions": "considered, relative to TAN-420B"}, "[2]": {"tested_on": "Micrococcus flavus IFO 3242", "test": "Agar dilution assay, antimicrobial activity", "format": "cell-based", "method": "(§1) The antimicrobial activity of Antibiotic TAN-420B, C, D and E was assayed by the agar dilution method using Typticase soy agar (Baltimore Biological Laboratories, U.S.A.) as the test medium."}, "[3]": {"tested_on": "Bacillus subtilis PCI 219", "test": "Agar dilution assay, antimicrobial activity", "format": "cell-based", "method": "as §1"}, "B. brevis IFO 3331": {"tested_on": "B. brevis IFO 3331", "test": "Agar dilution assay, antimicrobial activity", "format": "cell-based", "conditions": "Brevibacillus brevis", "method": "as §1"}, "Escherichia coli K12": {"tested_on": "Escherichia coli K12", "test": "Agar dilution assay, antimicrobial activity", "format": "cell-based", "method": "as §1"}, "[4]": {"tested_on": "Staphylococcus aureus FDA 209P", "test": "Agar dilution assay, antimicrobial activity", "format": "cell-based", "conditions": "FDA209P, read-out: Minimal inhibitory concentration", "method": "as §1"}, "B. megaterium IFO 12108": {"tested_on": "B. megaterium IFO 12108", "test": "Agar dilution assay, antimicrobial activity", "format": "cell-based", "conditions": "Priestia megaterium", "method": "as §1"}, "B. pumilus IFO 3813": {"tested_on": "B. pumilus IFO 3813", "test": "Agar dilution assay, antimicrobial activity", "format": "cell-based", "conditions": "Bacillus pumilus", "method": "as §1"}, "[5]": {"tested_on": "Pseudomonas aeruginosa IFO 3080", "test": "Agar dilution assay, antimicrobial activity", "format": "cell-based", "method": "as §1"}, "B. cereus IFO 3514": {"tested_on": "B. cereus IFO 3514", "test": "Agar dilution assay, antimicrobial activity", "format": "cell-based", "conditions": "Bacillus cereus", "method": "as §1"}, "Tetrahymena pyriformis W": {"tested_on": "Tetrahymena pyriformis W", "test": "Liquid dilution assay of antiprotozoal activity", "format": "cell-based", "conditions": "read-out: minimal inhibitory concentration"}, "[6]": {"test": "Acute toxicity (mouse, intraperitoneal)", "conditions": "in vivo, ip", "method": "As regards the acute toxocity of Antibiotic TAN-420 (mouse, intraperitoneal), the LD50 value of TAN-420C was 200 to 400 mg/kg, that of TAN-420D was 100 mg/kg, and that of TAN-420E was 50 mg/kg. It is therefore, considered that the toxicity of Antibiotic TAN-420 is low."}, "[7]": {"test": "Toxicity compared with herbimycin A", "conditions": "comparison in words"}, "[8]": {"conditions": "known from Journal of Antibiotics 32, 255-261 (1979), Tetrahedron Letters No. 44, 4323-4326 (1979); cited from earlier work"}, "[9]": {"conditions": "IFO3242, agar dilution, Micrococcus flavus IFO 3242, read-out: Minimal inhibitory concentration"}, "[10]": {"conditions": "PCI219, agar dilution, Bacillus subtilis PCI 219, read-out: Minimal inhibitory concentration"}, "[11]": {"conditions": "IFO3331, agar dilution, B. brevis IFO 3331, read-out: Minimal inhibitory concentration"}, "[12]": {"conditions": "agar dilution, Escherichia coli K12, read-out: Minimal inhibitory concentration"}, "[13]": {"conditions": "agar dilution, Staphylococcus aureus FDA 209P"}, "[14]": {"conditions": "IFO12108, agar dilution, B. megaterium IFO 12108, read-out: Minimal inhibitory concentration"}, "[15]": {"conditions": "IFO3813, agar dilution, B. pumilus IFO 3813, read-out: Minimal inhibitory concentration"}, "[16]": {"conditions": "IFO3080, agar dilution, Pseudomonas aeruginosa IFO 3080, read-out: Minimal inhibitory concentration"}, "[17]": {"conditions": "IFO3514, agar dilution, B. cereus IFO 3514, read-out: Minimal inhibitory concentration"}, "[18]": {"conditions": "liquid dilution assay, Tetrahymena pyriformis W"}}, "note": "Read-outs that look alike come from different tables or passages of the source.", "data": [{"smiles": "COC1C=CC=C(C)C(=O)Nc2cc(O)cc(c2O)C(OC)C(C)CC(O)C(O)C(C)C=C(C)C1OC(N)=O", "note": "(stereo not drawn) [TAN-420A]", "values": [{"measurement": "antimicrobial activity", "setting": "[1]", "result": "of the same order as that of TAN-420B"}]}, {"smiles": "COC1C=CC=C(C)C(=O)NC2=CC(=O)C=C(C2=O)C(OC)C(C)CC(O)C(O)C(C)C=C(C)C1OC(N)=O", "note": "(stereo not drawn) [TAN-420B]", "values": [{"measurement": "MIC", "setting": "[2]; Micrococcus flavus, IFO3242, read-out: Minimal inhibitory concentration", "result": 25, "unit": "µg/mL"}, {"measurement": "MIC", "setting": "[3]; Bacillus subtilis, PCI219, read-out: Minimal inhibitory concentration", "result": "> 100", "unit": "µg/mL"}, {"measurement": "MIC", "setting": "B. brevis IFO 3331; IFO3331, read-out: Minimal inhibitory concentration", "result": 50, "unit": "µg/mL"}, {"measurement": "MIC", "setting": "Escherichia coli K12; Escherichia coli, K12, read-out: Minimal inhibitory concentration", "result": "> 100", "unit": "µg/mL"}, {"measurement": "MIC", "setting": "[4]; Staphylococcus aureus", "result": 100, "unit": "µg/mL"}, {"measurement": "MIC", "setting": "B. megaterium IFO 12108; IFO12108, read-out: Minimal inhibitory concentration", "result": 100, "unit": "µg/mL"}, {"measurement": "MIC", "setting": "B. pumilus IFO 3813; IFO3813, read-out: Minimal inhibitory concentration", "result": 100, "unit": "µg/mL"}, {"measurement": "MIC", "setting": "[5]; Pseudomonas aeruginosa, IFO3080, read-out: Minimal inhibitory concentration", "result": "> 100", "unit": "µg/mL"}, {"measurement": "MIC", "setting": "B. cereus IFO 3514; IFO3514, read-out: Minimal inhibitory concentration", "result": 100, "unit": "µg/mL"}, {"measurement": "MIC", "setting": "Tetrahymena pyriformis W; Tetrahymena pyriformis", "result": 40, "unit": "µg/mL"}]}, {"smiles": "COC1C=CC=C(C)C(=O)Nc2cc(O)cc(c2O)C(OC)C(C)CC(OC)C(O)C(C)C=C(C)C1OC(N)=O", "note": "(stereo not drawn) [TAN-420C]", "values": [{"measurement": "LD50", "setting": "[6]", "result": "200 to 400", "unit": "mg/kg"}, {"measurement": "MIC", "setting": "[2]; [9]", "result": 25, "unit": "µg/mL"}, {"measurement": "MIC", "setting": "[3]; [10]", "result": "> 100", "unit": "µg/mL"}, {"measurement": "MIC", "setting": "B. brevis IFO 3331; [11]", "result": 50, "unit": "µg/mL"}, {"measurement": "MIC", "setting": "Escherichia coli K12; [12]", "result": "> 100", "unit": "µg/mL"}, {"measurement": "MIC", "setting": "[4]; [13]", "result": 100, "unit": "µg/mL"}, {"measurement": "MIC", "setting": "B. megaterium IFO 12108; [14]", "result": 100, "unit": "µg/mL"}, {"measurement": "MIC", "setting": "B. pumilus IFO 3813; [15]", "result": 100, "unit": "µg/mL"}, {"measurement": "MIC", "setting": "[5]; [16]", "result": "> 100", "unit": "µg/mL"}, {"measurement": "MIC", "setting": "B. cereus IFO 3514; [17]", "result": 100, "unit": "µg/mL"}, {"measurement": "MIC", "setting": "Tetrahymena pyriformis W; [18]", "result": 10, "unit": "µg/mL"}, {"measurement": "toxicity relative to herbimycin A", "setting": "[7]", "result": "lower than that of herbimycin A"}]}, {"smiles": "COC1C=CC=C(C)C(=O)NC2=CC(=O)C=C(C2=O)C(OC)C(C)CC(OC)C(O)C(C)C=C(C)C1OC(N)=O", "note": "(stereo not drawn) [TAN-420D]", "values": [{"measurement": "LD50", "setting": "[6]", "result": 100, "unit": "mg/kg"}, {"measurement": "MIC", "setting": "[2]; [9]", "result": 25, "unit": "µg/mL"}, {"measurement": "MIC", "setting": "[3]; [10]", "result": "> 100", "unit": "µg/mL"}, {"measurement": "MIC", "setting": "B. brevis IFO 3331; [11]", "result": 50, "unit": "µg/mL"}, {"measurement": "MIC", "setting": "Escherichia coli K12; [12]", "result": "> 100", "unit": "µg/mL"}, {"measurement": "MIC", "setting": "[4]; [13]", "result": 100, "unit": "µg/mL"}, {"measurement": "MIC", "setting": "B. megaterium IFO 12108; [14]", "result": 100, "unit": "µg/mL"}, {"measurement": "MIC", "setting": "B. pumilus IFO 3813; [15]", "result": 100, "unit": "µg/mL"}, {"measurement": "MIC", "setting": "[5]; [16]", "result": "> 100", "unit": "µg/mL"}, {"measurement": "MIC", "setting": "B. cereus IFO 3514; [17]", "result": 100, "unit": "µg/mL"}, {"measurement": "MIC", "setting": "Tetrahymena pyriformis W; [18]", "result": 4, "unit": "µg/mL"}, {"measurement": "toxicity relative to herbimycin A", "setting": "[7]", "result": "lower than that of herbimycin A"}]}, {"smiles": "COC1C=CC=C(C)C(=O)Nc2cc(O)cc(c2O)C(OC)C(C)CC(OC)C(OC)C(C)C=C(C)C1OC(N)=O", "note": "(stereo not drawn) [TAN-420E]", "values": [{"measurement": "LD50", "setting": "[6]", "result": 50, "unit": "mg/kg"}, {"measurement": "MIC", "setting": "[2]; [9]", "result": 50, "unit": "µg/mL"}, {"measurement": "MIC", "setting": "[3]; [10]", "result": 100, "unit": "µg/mL"}, {"measurement": "MIC", "setting": "B. brevis IFO 3331; [11]", "result": 50, "unit": "µg/mL"}, {"measurement": "MIC", "setting": "Escherichia coli K12; [12]", "result": "> 100", "unit": "µg/mL"}, {"measurement": "MIC", "setting": "[4]; [13]", "result": 100, "unit": "µg/mL"}, {"measurement": "MIC", "setting": "B. megaterium IFO 12108; [14]", "result": 50, "unit": "µg/mL"}, {"measurement": "MIC", "setting": "B. pumilus IFO 3813; [15]", "result": 100, "unit": "µg/mL"}, {"measurement": "MIC", "setting": "[5]; [16]", "result": "> 100", "unit": "µg/mL"}, {"measurement": "MIC", "setting": "B. cereus IFO 3514; [17]", "result": 100, "unit": "µg/mL"}, {"measurement": "MIC", "setting": "Tetrahymena pyriformis W; [18]", "result": 2, "unit": "µg/mL"}, {"measurement": "toxicity relative to herbimycin A", "setting": "[7]", "result": "lower than that of herbimycin A"}]}, {"smiles": "COC1C=CC=C(C)C(=O)NC2=CC(=O)C=C(C2=O)C(OC)C(C)CC(OC)C(OC)C(C)C=C(C)C1OC(N)=O", "note": "(stereo not drawn) [herbimycin A]", "values": [{"measurement": "herbicidal activity", "setting": "[8]", "result": "has herbicidal activity"}]}]}
